Legend:
[1] = Binding affinity to benzodiazepine binding site of GABAA receptor
Cannabinoid receptor 2 = Cannabinoid receptor 2 (Homo sapiens, UniProt P34972); assay: Displacement of [3H]CP55940 from CB2 receptor
Cannabinoid receptor 1 = Cannabinoid receptor 1 (Homo sapiens, UniProt P21554); assay: Displacement of [3H]CP55940 from CB1 receptor
Translocator protein = Translocator protein (Rattus norvegicus, UniProt P16257)
[2] = molecular target: Sodium-dependent serotonin transporter (Homo sapiens) (UniProt P31645); conditions: 10 uM
[3] = molecular target: D(2) dopamine receptor (Homo sapiens) (UniProt P14416); conditions: 10 uM
[4] = molecular target: Vasopressin V1b receptor (Homo sapiens) (UniProt P47901); conditions: 10 uM
[5] = molecular target: D(4) dopamine receptor (Homo sapiens) (UniProt P21917); conditions: 10 uM
[6] = molecular target: D(3) dopamine receptor (Homo sapiens) (UniProt P35462); conditions: 10 uM
[7] = molecular target: Sodium-dependent dopamine transporter (Homo sapiens) (UniProt Q01959); conditions: 10 uM
[8] = molecular target: 5-hydroxytryptamine receptor 6 (Homo sapiens) (UniProt P50406); conditions: 10 uM
[9] = molecular target: Muscarinic acetylcholine receptor M2 (Homo sapiens) (UniProt P08172); conditions: 10 uM
[10] = molecular target: 5-hydroxytryptamine receptor 2A (Homo sapiens) (UniProt P28223); conditions: 10 uM
[11] = molecular target: Muscarinic acetylcholine receptor M4 (Homo sapiens) (UniProt P08173); conditions: 10 uM
[12] = molecular target: Mu-type opioid receptor (Homo sapiens) (UniProt P35372); conditions: 10 uM
[13] = molecular target: 5-hydroxytryptamine receptor 7 (Homo sapiens) (UniProt P34969); conditions: 10 uM
[14] = molecular target: Muscarinic acetylcholine receptor M3 (Homo sapiens) (UniProt P20309); conditions: 10 uM
[15] = molecular target: T1, 5-hydroxytryptamine receptor 1D (Homo sapiens, UniProt P28221); assay: Binding affinity to 5HT1D receptor by radioligand binding assay
[16] = molecular target: Muscarinic acetylcholine receptor M1 (Homo sapiens) (UniProt P11229); conditions: 10 uM
[17] = molecular target: Histamine H3 receptor (Homo sapiens) (UniProt Q9Y5N1); conditions: 10 uM
[18] = molecular target: T1, 5-hydroxytryptamine receptor 1D; conditions: 10 uM
[19] = molecular target: 5-hydroxytryptamine receptor 1E (Homo sapiens) (UniProt P28566); conditions: 10 uM
[20] = molecular target: Delta-type opioid receptor (Homo sapiens) (UniProt P41143); conditions: 10 uM
[21] = molecular target: Histamine H2 receptor (Homo sapiens) (UniProt P25021); conditions: 10 uM
[22] = molecular target: 5-hydroxytryptamine receptor 2C (Homo sapiens) (UniProt P28335); conditions: 10 uM
[23] = molecular target: D(1A) dopamine receptor (Homo sapiens) (UniProt P21728); conditions: 10 uM
[24] = molecular target: Beta-1 adrenergic receptor (Homo sapiens) (UniProt P08588); conditions: 10 uM
[25] = molecular target: Alpha-2A adrenergic receptor (Homo sapiens) (UniProt P08913); conditions: 10 uM
[26] = molecular target: Alpha-1B adrenergic receptor (Homo sapiens) (UniProt P35368); conditions: 10 uM
[27] = molecular target: Vasopressin V1a receptor (Homo sapiens) (UniProt P37288); conditions: 10 uM
[28] = molecular target: Sigma non-opioid intracellular receptor 1 (Homo sapiens) (UniProt Q99720); conditions: 10 uM
[29] = molecular target: Alpha-2B adrenergic receptor (Homo sapiens) (UniProt P18089); conditions: 10 uM
[30] = molecular target: Alpha-1A adrenergic receptor (Homo sapiens) (UniProt P35348); conditions: 10 uM
D(1B) dopamine receptor = D(1B) dopamine receptor (Homo sapiens, UniProt P21918); assay: Binding affinity to opamine D5 receptor by radioligand binding assay
[31] = molecular target: Sodium-dependent noradrenaline transporter (Homo sapiens) (UniProt P23975); conditions: 10 uM
[32] = molecular target: 5-hydroxytryptamine receptor 1A (Homo sapiens) (UniProt P08908); conditions: 10 uM
[33] = molecular target: Histamine H4 receptor (Homo sapiens) (UniProt Q9H3N8); conditions: 10 uM
[34] = molecular target: 5-hydroxytryptamine receptor 3A (Homo sapiens) (UniProt P46098); conditions: 10 uM
[35] = molecular target: Histamine H1 receptor (Homo sapiens) (UniProt P35367); conditions: 10 uM
[36] = molecular target: Beta-3 adrenergic receptor (Homo sapiens) (UniProt P13945); conditions: 10 uM
[37] = molecular target: Alpha-2C adrenergic receptor (Homo sapiens) (UniProt P18825); conditions: 10 uM
[38] = molecular target: Kappa-type opioid receptor (Homo sapiens, UniProt P41145); assay: Binding affinity to kappa opioid receptor by radioligand binding assay
[39] = molecular target: Vasopressin V2 receptor (Homo sapiens) (UniProt P30518); conditions: 10 uM
[40] = molecular target: 5-hydroxytryptamine receptor 5A (Homo sapiens) (UniProt P47898); conditions: 10 uM
[41] = molecular target: Muscarinic acetylcholine receptor M5 (Homo sapiens) (UniProt P08912); conditions: 10 uM
[42] = molecular target: 5-hydroxytryptamine receptor 2B (Homo sapiens) (UniProt P41595); conditions: 10 uM

Sequence of Translocator protein (P16257 whole entry, looked up): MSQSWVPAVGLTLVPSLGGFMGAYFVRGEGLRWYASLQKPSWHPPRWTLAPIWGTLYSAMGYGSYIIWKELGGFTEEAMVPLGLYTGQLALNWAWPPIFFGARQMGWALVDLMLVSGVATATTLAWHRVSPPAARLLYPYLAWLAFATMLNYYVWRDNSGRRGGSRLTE
Sequence of Cannabinoid receptor 1 (P21554 whole entry): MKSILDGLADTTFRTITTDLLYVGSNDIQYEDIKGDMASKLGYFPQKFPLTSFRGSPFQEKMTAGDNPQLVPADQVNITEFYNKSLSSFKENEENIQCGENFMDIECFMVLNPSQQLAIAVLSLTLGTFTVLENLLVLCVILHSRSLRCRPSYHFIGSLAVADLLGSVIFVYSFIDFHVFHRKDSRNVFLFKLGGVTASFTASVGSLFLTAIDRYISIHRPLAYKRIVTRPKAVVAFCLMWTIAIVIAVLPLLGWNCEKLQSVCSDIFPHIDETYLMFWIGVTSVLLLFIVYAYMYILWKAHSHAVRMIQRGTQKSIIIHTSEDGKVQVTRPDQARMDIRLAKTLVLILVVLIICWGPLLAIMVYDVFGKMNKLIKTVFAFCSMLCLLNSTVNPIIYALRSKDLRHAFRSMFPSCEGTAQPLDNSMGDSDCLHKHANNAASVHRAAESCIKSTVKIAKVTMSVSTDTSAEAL
Sequence of Cannabinoid receptor 2 (P34972 whole entry): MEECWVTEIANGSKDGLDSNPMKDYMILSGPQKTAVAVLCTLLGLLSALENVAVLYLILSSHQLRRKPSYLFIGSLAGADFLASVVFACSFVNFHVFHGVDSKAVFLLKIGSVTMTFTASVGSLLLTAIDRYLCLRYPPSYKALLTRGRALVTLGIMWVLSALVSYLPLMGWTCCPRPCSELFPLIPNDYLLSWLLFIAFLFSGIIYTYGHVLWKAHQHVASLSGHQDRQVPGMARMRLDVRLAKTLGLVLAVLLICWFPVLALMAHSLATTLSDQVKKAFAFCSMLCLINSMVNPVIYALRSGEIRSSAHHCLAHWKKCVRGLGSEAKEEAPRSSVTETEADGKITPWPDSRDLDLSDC
T1 sequence (P28221 whole entry): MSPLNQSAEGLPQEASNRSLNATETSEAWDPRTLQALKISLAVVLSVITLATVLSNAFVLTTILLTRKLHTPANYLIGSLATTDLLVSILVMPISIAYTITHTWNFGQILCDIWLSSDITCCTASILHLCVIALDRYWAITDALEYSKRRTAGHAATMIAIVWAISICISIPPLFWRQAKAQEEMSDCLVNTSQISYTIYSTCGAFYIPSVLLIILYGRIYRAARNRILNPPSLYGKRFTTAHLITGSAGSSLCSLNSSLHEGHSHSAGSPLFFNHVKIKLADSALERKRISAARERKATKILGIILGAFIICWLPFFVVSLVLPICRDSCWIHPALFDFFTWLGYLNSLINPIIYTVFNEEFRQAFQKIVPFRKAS
Sequence of Alpha-2B adrenergic receptor (Homo sapiens) (P18089 whole entry): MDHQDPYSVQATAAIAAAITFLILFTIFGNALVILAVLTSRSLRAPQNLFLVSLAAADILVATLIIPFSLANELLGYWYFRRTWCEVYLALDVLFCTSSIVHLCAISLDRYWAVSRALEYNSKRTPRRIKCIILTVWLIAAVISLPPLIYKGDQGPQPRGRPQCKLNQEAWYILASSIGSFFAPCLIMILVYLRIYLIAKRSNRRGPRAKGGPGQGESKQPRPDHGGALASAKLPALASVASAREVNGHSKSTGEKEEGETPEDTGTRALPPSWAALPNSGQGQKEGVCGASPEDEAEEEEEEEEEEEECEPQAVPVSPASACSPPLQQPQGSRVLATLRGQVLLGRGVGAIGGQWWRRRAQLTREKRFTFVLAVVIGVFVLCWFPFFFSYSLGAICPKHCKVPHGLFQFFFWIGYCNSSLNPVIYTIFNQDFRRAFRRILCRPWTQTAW
Sequence of Vasopressin V2 receptor (Homo sapiens) (P30518 whole entry): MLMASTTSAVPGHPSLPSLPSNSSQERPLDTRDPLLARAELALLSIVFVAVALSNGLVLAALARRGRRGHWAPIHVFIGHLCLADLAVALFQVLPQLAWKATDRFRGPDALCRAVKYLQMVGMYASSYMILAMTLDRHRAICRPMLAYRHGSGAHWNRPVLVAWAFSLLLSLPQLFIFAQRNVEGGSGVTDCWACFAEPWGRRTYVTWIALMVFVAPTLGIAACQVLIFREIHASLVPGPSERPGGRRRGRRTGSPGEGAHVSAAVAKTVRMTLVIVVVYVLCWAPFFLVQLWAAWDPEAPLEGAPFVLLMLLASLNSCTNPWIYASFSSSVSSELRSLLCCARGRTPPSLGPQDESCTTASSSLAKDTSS
Sequence of Kappa-type opioid receptor (P41145 whole entry): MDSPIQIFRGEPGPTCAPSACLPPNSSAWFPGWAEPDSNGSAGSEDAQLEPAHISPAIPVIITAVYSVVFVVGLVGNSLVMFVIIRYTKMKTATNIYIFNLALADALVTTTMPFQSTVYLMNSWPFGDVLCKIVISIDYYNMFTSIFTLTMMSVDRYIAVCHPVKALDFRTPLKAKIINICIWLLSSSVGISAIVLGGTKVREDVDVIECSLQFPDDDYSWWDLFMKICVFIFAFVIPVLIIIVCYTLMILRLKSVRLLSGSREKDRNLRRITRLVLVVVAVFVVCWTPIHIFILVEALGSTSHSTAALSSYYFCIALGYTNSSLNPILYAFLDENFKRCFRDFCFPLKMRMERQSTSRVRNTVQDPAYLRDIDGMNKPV
Sequence of Mu-type opioid receptor (Homo sapiens) (P35372 whole entry): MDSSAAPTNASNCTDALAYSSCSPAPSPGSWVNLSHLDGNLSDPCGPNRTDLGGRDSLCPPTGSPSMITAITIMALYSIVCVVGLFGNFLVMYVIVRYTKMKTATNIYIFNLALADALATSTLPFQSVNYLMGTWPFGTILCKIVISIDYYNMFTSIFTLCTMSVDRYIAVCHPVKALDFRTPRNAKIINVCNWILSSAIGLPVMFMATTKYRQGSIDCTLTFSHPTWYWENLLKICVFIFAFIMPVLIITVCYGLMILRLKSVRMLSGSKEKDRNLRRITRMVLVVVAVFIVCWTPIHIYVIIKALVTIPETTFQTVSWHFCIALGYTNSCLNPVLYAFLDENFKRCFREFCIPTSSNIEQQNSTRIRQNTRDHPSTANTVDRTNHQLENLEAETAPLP
Sequence of Muscarinic acetylcholine receptor M1 (Homo sapiens) (P11229 whole entry): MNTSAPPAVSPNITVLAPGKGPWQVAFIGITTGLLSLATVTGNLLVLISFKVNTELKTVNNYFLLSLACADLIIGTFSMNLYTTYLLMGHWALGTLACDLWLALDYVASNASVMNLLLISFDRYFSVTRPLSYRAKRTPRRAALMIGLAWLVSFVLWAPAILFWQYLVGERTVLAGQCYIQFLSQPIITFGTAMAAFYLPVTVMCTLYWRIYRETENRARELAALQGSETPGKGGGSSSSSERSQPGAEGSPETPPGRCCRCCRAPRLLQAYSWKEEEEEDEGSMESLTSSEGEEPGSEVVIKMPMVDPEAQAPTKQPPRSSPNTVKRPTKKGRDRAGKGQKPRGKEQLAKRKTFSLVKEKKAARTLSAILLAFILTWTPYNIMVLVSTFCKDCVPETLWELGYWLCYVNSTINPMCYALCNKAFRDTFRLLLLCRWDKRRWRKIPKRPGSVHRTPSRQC
Sequence of Muscarinic acetylcholine receptor M2 (Homo sapiens) (P08172 whole entry): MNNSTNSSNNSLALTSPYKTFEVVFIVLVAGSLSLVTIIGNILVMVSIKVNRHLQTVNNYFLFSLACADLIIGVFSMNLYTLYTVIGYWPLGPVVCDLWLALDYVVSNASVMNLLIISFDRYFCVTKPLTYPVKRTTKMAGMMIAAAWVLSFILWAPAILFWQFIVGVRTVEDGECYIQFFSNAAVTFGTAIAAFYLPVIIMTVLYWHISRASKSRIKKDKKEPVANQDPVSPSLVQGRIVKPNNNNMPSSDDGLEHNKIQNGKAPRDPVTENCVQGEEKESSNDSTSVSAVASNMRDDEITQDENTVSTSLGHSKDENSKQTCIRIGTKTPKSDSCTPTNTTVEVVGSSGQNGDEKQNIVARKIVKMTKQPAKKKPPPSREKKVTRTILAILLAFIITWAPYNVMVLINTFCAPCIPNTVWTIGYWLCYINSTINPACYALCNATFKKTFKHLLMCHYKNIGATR
Sequence of Sigma non-opioid intracellular receptor 1 (Homo sapiens) (Q99720 whole entry): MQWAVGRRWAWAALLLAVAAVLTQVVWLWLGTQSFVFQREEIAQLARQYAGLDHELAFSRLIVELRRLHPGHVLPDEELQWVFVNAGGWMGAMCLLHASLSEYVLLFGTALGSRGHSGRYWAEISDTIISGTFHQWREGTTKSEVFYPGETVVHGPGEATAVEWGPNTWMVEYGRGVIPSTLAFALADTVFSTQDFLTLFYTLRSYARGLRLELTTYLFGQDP
Sequence of 5-hydroxytryptamine receptor 6 (Homo sapiens) (P50406 whole entry): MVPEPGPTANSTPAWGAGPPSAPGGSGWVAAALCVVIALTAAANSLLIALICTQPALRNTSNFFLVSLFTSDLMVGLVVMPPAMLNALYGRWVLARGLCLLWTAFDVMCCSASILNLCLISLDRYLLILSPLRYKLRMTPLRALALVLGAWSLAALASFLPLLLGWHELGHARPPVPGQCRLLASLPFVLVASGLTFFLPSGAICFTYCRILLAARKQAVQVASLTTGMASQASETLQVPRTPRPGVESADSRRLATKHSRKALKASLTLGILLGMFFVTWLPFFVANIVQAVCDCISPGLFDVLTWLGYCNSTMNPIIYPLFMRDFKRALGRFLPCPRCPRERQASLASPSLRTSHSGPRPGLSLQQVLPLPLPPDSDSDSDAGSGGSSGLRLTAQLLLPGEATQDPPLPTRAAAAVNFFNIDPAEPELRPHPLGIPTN

**Q.** With `Cc1c(C(=O)NC2(C#N)CCOCC2)nn(-c2ccccc2Br)c1-c1ccccc1` as the compound, how does the Ki [1] read?
**A.** > 10 µM

**Q.** Which Ki (Cannabinoid receptor 2) does the source give for `COc1ccc(-c2c(C)c(C(=O)NC3(C#N)CCOCC3)nn2-c2ccccc2F)cc1` here?
**A.** 2.46 µM

**Q.** And the Ki (Cannabinoid receptor 1)?
**A.** 0.115 µM

**Q.** And the Ki [1]?
**A.** > 10 µM

**Q.** With `Cc1c(C(=O)N(C)C2(C#N)CCOCC2)nn(-c2ccccc2Cl)c1-c1ccccc1` as the compound, how does the Ki (Translocator protein) read?
**A.** 0.88 µM

**Q.** And the Ki (Cannabinoid receptor 2)?
**A.** > 10 µM

**Q.** And the Ki (Cannabinoid receptor 1)?
**A.** > 10 µM

**Q.** And the Ki [1]?
**A.** > 10 µM

**Q.** With `COc1ccc(-c2c(C)c(C(=O)NC3(C#N)CCOCC3)nn2-c2cccc(Br)c2)cc1` as the compound, how does the Ki (Cannabinoid receptor 2) read?
**A.** 0.234 µM

**Q.** And the Ki (Cannabinoid receptor 1)?
**A.** 0.68 µM

**Q.** What about the Ki [1] of the same compound?
**A.** > 10 µM

**Q.** For `N#CC1(NC(=O)c2cc(-c3ccccc3)n(-c3ccccc3Br)n2)CCOCC1`, which Ki (Translocator protein) is on record?
**A.** 3.11 µM

**Q.** What about the Ki (Cannabinoid receptor 2) of the same compound?
**A.** > 10 µM

**Q.** And the Ki (Cannabinoid receptor 1)?
**A.** 0.297 µM

**Q.** What about the Ki [1] of the same compound?
**A.** > 10 µM

**Q.** For `Cc1c(C(=O)NC2(C#N)CCOCC2)nn(-c2ccccc2Cl)c1-c1ccccc1`, which Ki (Translocator protein) is on record?
**A.** 0.436 µM

**Q.** What about the Ki (Cannabinoid receptor 2) of the same compound?
**A.** > 10 µM

**Q.** And the Ki (Cannabinoid receptor 1)?
**A.** > 10 µM

**Q.** What about the Ki [1] of the same compound?
**A.** > 10 µM

**Q.** For `Cc1c(C(=O)NN2CCCCC2)nn(-c2ccc(Cl)cc2Cl)c1-c1ccc(Cl)cc1` [RIMONABANT], which Ki [1] is on record?
**A.** > 10 µM

**Q.** Which results are given for `N#Cc1c(C(=O)NC2(C#N)CCOCC2)nn(-c2ccccc2Br)c1-c1ccccc1`?
**A.** Ki (Translocator protein): 3.69 µM; Ki (Cannabinoid receptor 2): > 10 µM; Ki (Cannabinoid receptor 1): 0.437 µM; Ki [1]: > 10 µM

**Q.** Which Ki [1] does the source give for `Cc1c(C(=O)NC2(C#N)CCOCC2)nn(-c2ccccc2-c2ccccc2)c1-c1ccccc1` here?
**A.** > 10 µM

**Q.** Which Ki [1] does the source give for `CCC(C)N(C)C(=O)c1cc2ccccc2c(-c2ccccc2Cl)n1` (stereo not drawn) [PK-11195] here?
**A.** > 10 µM

**Q.** Which Ki (Translocator protein) does the source give for `COc1ccc(-c2c(C#N)c(C(=O)NC3(C#N)CCOCC3)nn2-c2ccccc2I)cc1` here?
**A.** 1.92 µM

**Q.** What about the Ki (Cannabinoid receptor 2) of the same compound?
**A.** 2.37 µM

**Q.** What about the Ki (Cannabinoid receptor 1) of the same compound?
**A.** > 10 µM

**Q.** What about the Ki [1] of the same compound?
**A.** > 10 µM

**Q.** With `Cc1c(C(=O)NC2(C#N)CCOCC2)nn(-c2ccccc2Br)c1-c1cccc(F)c1` as the compound, how does the Ki (Cannabinoid receptor 2) read?
**A.** > 10 µM

**Q.** What about the Ki (Cannabinoid receptor 1) of the same compound?
**A.** > 10 µM

**Q.** What about the Ki [1] of the same compound?
**A.** > 10 µM

**Q.** With `Cc1c(C(=O)NC2(C#N)CCOCC2)nn(-c2ccccc2F)c1-c1ccccc1` as the compound, how does the Ki [1] read?
**A.** > 10 µM

**Q.** With `Cc1c(C(=O)NC2(C#N)CCOCC2)nn(-c2cccc(Br)c2)c1-c1ccccc1` as the compound, how does the Ki [1] read?
**A.** > 10 µM

**Q.** Which Ki (Cannabinoid receptor 2) does the source give for `Cc1c(C(=O)NC2(C#N)CCOCC2)nn(-c2ccc(Br)cc2)c1-c1ccccc1` here?
**A.** 0.655 µM

**Q.** And the Ki (Cannabinoid receptor 1)?
**A.** 0.259 µM

**Q.** What about the Ki [1] of the same compound?
**A.** > 10 µM

**Q.** Which Ki [1] does the source give for `COc1ccc(-c2c(Br)c(C(=O)NC3(C#N)CCOCC3)nn2-c2cccc(Br)c2)cc1` here?
**A.** > 10 µM

**Q.** For `COc1ccc(-c2c(C)c(C(=O)NC3(C#N)CCCCC3)nn2-c2ccccc2Br)cc1`, which inhibition [2] is on record?
**A.** < 50%

**Q.** And the inhibition [3]?
**A.** < 50%

**Q.** And the inhibition [4]?
**A.** < 50%

**Q.** And the inhibition [5]?
**A.** < 50%

**Q.** And the inhibition [6]?
**A.** < 50%

**Q.** What about the inhibition [7] of the same compound?
**A.** < 50%

**Q.** And the inhibition [8]?
**A.** < 50%

**Q.** What about the inhibition [9] of the same compound?
**A.** < 50%

**Q.** And the inhibition [10]?
**A.** < 50%

**Q.** What about the inhibition [11] of the same compound?
**A.** < 50%

**Q.** What about the inhibition [12] of the same compound?
**A.** < 50%

**Q.** And the inhibition [13]?
**A.** < 50%

**Q.** And the inhibition [14]?
**A.** < 50%

**Q.** And the Ki [15]?
**A.** > 10 µM

**Q.** And the inhibition [16]?
**A.** < 50%

**Q.** And the inhibition [17]?
**A.** < 50%

**Q.** And the Ki (Translocator protein)?
**A.** 0.279 µM

**Q.** What about the inhibition [18] of the same compound?
**A.** < 50%

**Q.** And the inhibition [19]?
**A.** < 50%

**Q.** And the inhibition [20]?
**A.** < 50%

**Q.** What about the inhibition [21] of the same compound?
**A.** < 50%

**Q.** And the inhibition [22]?
**A.** < 50%

**Q.** What about the inhibition [23] of the same compound?
**A.** < 50%

**Q.** What about the inhibition [24] of the same compound?
**A.** < 50%

**Q.** What about the inhibition [25] of the same compound?
**A.** < 50%

**Q.** What about the inhibition [26] of the same compound?
**A.** < 50%

**Q.** What about the inhibition [27] of the same compound?
**A.** < 50%

**Q.** And the inhibition [28]?
**A.** < 50%

**Q.** And the inhibition [29]?
**A.** < 50%

**Q.** What about the inhibition [30] of the same compound?
**A.** < 50%

**Q.** What about the Ki (D(1B) dopamine receptor) of the same compound?
**A.** > 10 µM

**Q.** What about the inhibition [31] of the same compound?
**A.** < 50%

**Q.** What about the inhibition [32] of the same compound?
**A.** < 50%

**Q.** And the inhibition [33]?
**A.** < 50%

**Q.** What about the Ki (Cannabinoid receptor 2) of the same compound?
**A.** 2.75 µM

**Q.** And the Ki (Cannabinoid receptor 1)?
**A.** 0.0157 µM

**Q.** What about the inhibition [34] of the same compound?
**A.** < 50%

**Q.** What about the inhibition [35] of the same compound?
**A.** < 50%

**Q.** And the inhibition [36]?
**A.** < 50%

**Q.** What about the inhibition [37] of the same compound?
**A.** < 50%

**Q.** And the Ki [38]?
**A.** 0.597 µM

**Q.** And the inhibition [39]?
**A.** < 50%

**Q.** And the Ki [1]?
**A.** > 10 µM

**Q.** And the inhibition [40]?
**A.** < 50%

**Q.** What about the inhibition [41] of the same compound?
**A.** < 50%

**Q.** And the inhibition [42]?
**A.** < 50%

**Q.** For `Cc1c(C(=O)NC2(C#N)CCCCC2)nn(-c2ccccc2Br)c1-c1ccccc1`, which Ki [1] is on record?
**A.** > 10 µM

**Q.** For `Cc1c(C(=O)NC2(C#N)CCOCC2)nn(-c2ccccc2I)c1-c1ccccc1`, which Ki [1] is on record?
**A.** > 10 µM

**Q.** Which Ki [1] does the source give for `Cc1c(C(=O)NC2(C#N)CCOCC2)nn(-c2ccccc2Br)c1-c1ccc(F)cc1` here?
**A.** > 10 µM

From ChEMBL document CHEMBL1764973 (J Med Chem, 2011)
